According to paper PMC10683482, “Offsetting Low-Affinity Carbohydrate Binding with Covalency to Engage Sugar-Specific Proteins for Tumor-Immune Proximity Induction” (ACS Central Science, 2023):
Read-outs that look alike come from different tables or passages of the source.

Test system: serum polyclonal antirhamnose antibodies (human IgG)
Assay: BLI affinity of rhamnose probes for polyclonal human IgG
Assay type: binding
Details: for kon: anti-rhamnose assumed 3% of total IgG; for koff: dissociation in 100 mM L-rhamnose
Text: We began by synthesizing antirhamnose affinity probes consisting of α-O/α-S and β-S rhamnose glycosides functionalized with a propargyl group for CuAAC-mediated coupling to a biotin TBD (compounds 1–3, Figure 1A and Scheme S1). This enabled rhamnose immobilization onto streptavidin surfaces and subsequent antibody binding studies. We used biolayer interferometry (BLI) to estimate and compare the apparent affinity of serum polyclonal antirhamnose antibodies for each rhamnose affinity probe (Figure 1B). […] Next, biosensors were submerged in a buffer containing free rhamnose competitor, and dissociation kinetics were measured (Figure 1B, Dissociation). The dissociation buffer contained 100 mM rhamnose competitor to inhibit avidity-based antibody rebinding, which interferes with koff measurements. […] In the context of proximity-inducing molecule development, this low monovalent sugar-binding affinity will ultimately limit ternary complex formation. […] The confirmation of low affinity binding also supports why multivalency has been historically required to efficiently engage antirhamnose antibodies for tumor-immune proximity induction and engage sugar binding receptors in general.
Figure 1 Affinity determination of endogenous and monoclonal antibody sources for L-rhamnose glycoside variants. A. Chemical structures of rhamnose affinity probes. B/C. Approximation of antirhamnose antibody binding affinity for probes 1–3 using biolayer interferometry. B. Purified human serum IgG is used to estimate the affinity of endogenous polyclonal serum antirhamnose antibodies for each affinity probe 1–3. C. Monoclonal anti-23F antibody is used to estimate the potential affinity of vaccine-induced antirhamnose antibodies for each affinity probe 1–3. […] Association was monitored for 900 (B) or 600 (C) seconds. The loaded biosensor probe was then dipped into a dissociation solution of 100 mM L-rhamnose for 600 s. Association curves were fit to a two-phase association model in GraphPad Prism using Kfast to calculate kon. Dissociation curves were similarly fit to a two-phase decay using Kfast to calculate koff. TEXT PRINTED IN THE PICTURE: (B) no label printed: Polyclonal Human IgG: Kd ≈ 7 x10^-5 M | (C) no label printed: Monoclonal Anti-23F: Kd ≈ 6 x10^-6 M DOUBTS OF THE COPYIST ABOUT THIS PICTURE: Panel B, Kd ≈ 7 x10^-5 M: printed once in the plot with no link to a single curve, so it is unclear which of (1) α–O, (2) α–S and (3) β–S it applies to / Panel C, Kd ≈ 6 x10^-6 M: printed once in the plot with no link to a single curve, so it is unclear which of (1) α–O, (2) α–S and (3) β–S it applies to […]
General Notes and Materials […]
Biolayer Interferometry (BLI) General notes and Materials
IgG from human serum was purchased from Innovative Research (IHUI GGAP1000MG). Anti -23F antibody was purchased fr om Creative Biolabs (PABX -173). Biolayer Interferometry (BLI) was conducted using a ForteBio Octet Red96, and streptavidin biosensors (Sartorius - 18-5019) or ProG biosensors (Sartorius – 18-5082). For quench, a 5% skim milk (Nestle Carnation Instant Skim Milk) solution in 1X kinetics buffer was used. The instrument was set at 25 °C, with 1000 RPM, and acquisition rate of 5 Hz.
Each well of a black well plate (Greiner Bio -One - 655086) was filled with 200 µL of appropriate solution.
Dissociation buffer was comprised of L-rhamnose (100 mM, Sigma Aldrich – R3875-10G) in 1X kinetics buffer to reduce avidity contribution to dissociation rate (koff).
SDS-PAGE General notes and Materials […]
Carboxyfluorescein was purchased from Sigma Aldrich (21877 -5G-F). IgG from human serum was purchased from Innovative Research (IHUIGGAP1000MG). Anti -23F antibody was purchased from Creative Biolabs (PABX -173). Laemellie Buffer (2x) was purchased from Sigma Aldrich (S3401 -10VL).
Pre-cast Tris-Glycine Gels (4-20%) were purchased from Fisher Scientific (XP04202BOX). Standard protein ladder was purchased from Bio Rad (1610363). […]

[1] = average of three IgG concentrations, read-out: Avg Kd

SMILES: C[C@@H]1O[C@@H](OCc2cn(CCOCCNC(=O)OCCOCCOCCOCCOCCOCCOCCOCCNC(=O)CCCC[C@@H]3SC[C@@H]4NC(=O)N[C@@H]43)nn2)[C@H](O)[C@H](O)[C@H]1O [compound 1]
- kon (26.2 µM IgG): 20749 M⁻¹ s⁻¹
- koff (26.2 µM IgG): 1.199 s⁻¹
- Kd (26.2 µM IgG, read-out: Kd): 58 µM
- kon (52.5 µM IgG): 13810 M⁻¹ s⁻¹
- koff (52.5 µM IgG): 1.112 s⁻¹
- Kd (52.5 µM IgG, read-out: Kd): 81 µM
- kon (105 µM IgG): 8235 M⁻¹ s⁻¹
- koff (105 µM IgG): 1.058 s⁻¹
- Kd (105 µM IgG, read-out: Kd): 128 µM
- Kd [1]: 89 ± 36 µM

SMILES: C[C@@H]1O[C@@H](SCc2cn(CCOCCNC(=O)OCCOCCOCCOCCOCCOCCOCCOCCNC(=O)CCCC[C@@H]3SC[C@@H]4NC(=O)N[C@@H]43)nn2)[C@H](O)[C@H](O)[C@H]1O [compound 2]
- kon (26.2 µM IgG): 21981 M⁻¹ s⁻¹
- koff (26.2 µM IgG): 1.103 s⁻¹
- Kd (26.2 µM IgG, read-out: Kd): 50 µM
- kon (52.5 µM IgG): 14298 M⁻¹ s⁻¹
- koff (52.5 µM IgG): 0.97 s⁻¹
- Kd (52.5 µM IgG, read-out: Kd): 68 µM
- kon (105 µM IgG): 8194 M⁻¹ s⁻¹
- koff (105 µM IgG): 0.8262 s⁻¹
- Kd (105 µM IgG, read-out: Kd): 101 µM
- Kd [1]: 73 ± 26 µM
